These results are taken from US20080112954A1, “Method for treating chronic pain” (Parker College of Chiropractic, priority 2006, published 2008).

For one experiment, the system named is naïve rats. Nature of the experiment: Thermal sensitivity of naïve rats after intrathecal EphB receptor activators. The conditions noted are these: prior injection of 20 μg. The class given is in vivo, rat.
The subject of experiment [1] is synapses between C-fibers and DH neurons. Nature of the experiment: LTP of C-fiber evoked field potentials in spinal dorsal horn in vivo. Set-up: species or system rat. To be noted: for LTP produced by 4 high-frequency trains of nerve shock: naïve animals. The method, then: Under anesthesia, a cannula was inserted into the trachea to allow artificial ventilation and another cannula containing heparin (0.03%) saline was inserted into the left carotid artery to monitor the blood pressure. The rat was placed in a stereotaxic frame, then was paralyzed by an intravenous injection of pancuronium bromide (4 mg/kg) and artificially ventilated with air at a tidal volume of 15 ml/kg. Adequate anesthesia was confirmed intermittently during neuromuscular blockade in terms of the following two criteria: (1) the pupils were constricted; (2) the blood pressure remained stable during noxious stimulation. Core body temperature was monitored through a thermister probe inserted into the rectum and maintained at 37.5±0.5° C. by means of a feedback-controlled heating pad under the ventral surface of the abdomen. In each experiment phosphate-buffered saline (PBS) was intermittently administered via a jugular vein cannula to maintain hydroelectrolyte balance. A laminectomy was performed to expose the lumbar spinal cord. The dura mater was then removed the exposed cord was immediately covered with warm agar (2% in saline). After the agar hardened, a small hole was made above the recording site for application of drug or vehicle. At the end of each experiment, the animals were killed by an overdose of intravenous pentobarbital (200 mg/kg).
Long-term potentiation (LTP) tests were performed on naïve rats. The protocol for the electrophysiological recordings of C-fiber evoked field potentials was similar to that described previously (Liu and Sandkuhler, 1998). The recordings were made at depths of 200-500 μm from the surface of the spinal cord between L4-L5 with glass capillary microelectrodes (DC resistances 3-5 MΩ filled with 2 M NaCl). The sciatic nerve was stimulated by a bipolar platinum hook electrode. […] Examples of the C-fiber-evoked field potentials given in each figure were recorded before (a) and after (b) tetanic stimulation (indicated by the arrow therein) or ephrinB1-Fc. […]

Each structure is given as a SMILES string.

In the case of `C[C@]12N[C@H](Cc3ccccc31)c1ccccc12` [MK-801, dizocilpine], the “thermal hypersensitivity induced by injection of ephrinB1-Fc or ephrinB2-Fc” value in the experiment with naïve rats is “prevented”. Besides, the “LTP produced by 4 high-frequency trains of nerve shock” value in experiment [1] (post-treatment) is “not interrupted”; in experiment [1] (topical pre-treatment), “blocked”. In addition, the “LTP induced by the combination of ephrinB1-Fc and 2 tetanic trains” value in experiment [1] (pre-treatment, n=5) is “blocked”.
